Measured values from patent US20230146795A1, “ENHANCEMENT OF ANTI-TUMOR ACTIVITY OF SHP2 INHIBITOR PYRIMIDINONE IN COMBINATION WITH NOVEL CANCER MEDICINES IN CANCERS” (TAIHO PHARMACEUTICAL CO., LTD., priority 2020, published 2023).

Assays:
Format in all cases: cell-based
RT4 = assay: Anti-proliferation assay (CellTiter-Glo 2.0), combination index, RT4; details: for Description: combination effect
Description: (§1) Cell lines were obtained from ATCC or Health Science Research Resources Bank.
(§2) Each cell lines were collected by ordinary method, then suspended in indicated medium containing 10% fetal bovine serum in table 3. The number of cells seeded per well was set to 500 cells/20 μL. […] The concentration of each anti-cancer reagents set to 8 concentrations including 0 nM. After adding the medicine to the cells, the cells were further incubated at 37° C. for 3 days under 5% CO2. Cell survival rates were calculated by adding 20 μL of CellTiter-Glo(registered trademark) 2. 0 (Promega) solution to each well, incubating the cells at room temperature for 10 minutes, and then measuring the chemiluminescence intensity of each well using a plate reader (ARVO).
(§3) A combination index (CI) value at each combined concentration of the medicines was determined.

NCI-H358 = assay: Anti-proliferation assay (CellTiter-Glo 2.0), combination index, NCI-H358
Description: as §1, §2, §3

MKN45 = assay: Anti-proliferation assay (CellTiter-Glo 2.0), combination index, MKN45; details: molar ratio 1:0.1
Description: as §1, §2, §3

[1] = Compound 1 1.52 + combination drug 1.37 nmol/L (1:0.9)
[2] = Compound 1 4.57 + combination drug 4.12 nmol/L (1:0.9)
[3] = Compound 1 13.7 + combination drug 12.3 nmol/L (1:0.9)
[4] = Compound 1 41.2 + combination drug 37.0 nmol/L (1:0.9)
[5] = Compound 1 123 + combination drug 111 nmol/L (1:0.9)
[6] = Compound 1 370 + combination drug 333 nmol/L (1:0.9)
[7] = Compound 1 1110 + combination drug 1000 nmol/L (1:0.9)
[8] = Compound 1 13.7 + combination drug 1.37 nmol/L (1:0.1)
[9] = Compound 1 41.2 + combination drug 4.12 nmol/L (1:0.1)
[10] = Compound 1 123 + combination drug 12.3 nmol/L (1:0.1)
[11] = Compound 1 41.2 + combination drug 3330 nmol/L (1:81)
[12] = Compound 1 123 + combination drug 10000 nmol/L (1:81)
[13] = Compound 1 1.52 nmol/L + Vorinostat 41.2 nmol/L, molar ratio 1:27
[14] = Compound 1 4.57 nmol/L + Vorinostat 123 nmol/L, molar ratio 1:27
[15] = Compound 1 13.7 nmol/L + Vorinostat 370 nmol/L, molar ratio 1:27
[16] = Compound 1 41.2 nmol/L + Vorinostat 1110 nmol/L, molar ratio 1:27
[17] = Compound 1 123 nmol/L + Vorinostat 3330 nmol/L, molar ratio 1:27
[18] = Compound 1 370 nmol/L + Vorinostat 10000 nmol/L, molar ratio 1:27
[19] = Compound 1 1110 nmol/L + Vorinostat 3330 nmol/L, molar ratio 1:3
[20] = Compound 1 3330 nmol/L + Vorinostat 10000 nmol/L, molar ratio 1:3
[21] = Compound 1 12.3 nmol/L + Gemcitabine 1.23 nmol/L
[22] = Compound 1 37.0 nmol/L + Gemcitabine 3.70 nmol/L
[23] = Compound 1 13.7 + combination drug 111 nmol/L (1:8.1)
[24] = Compound 1 41.2 + combination drug 333 nmol/L (1:8.1)
[25] = Compound 1 123 + combination drug 1000 nmol/L (1:8.1)
[26] = Compound 1 13.7 + combination drug 123 nmol/L (1:9)
[27] = Compound 1 41.2 + combination drug 370 nmol/L (1:9)
[28] = Compound 1 123 + combination drug 1110 nmol/L (1:9)
[29] = Compound 1 370 + combination drug 3330 nmol/L (1:9)
[30] = Compound 1 1110 + combination drug 10000 nmol/L (1:9)
[31] = Compound 1 4.57 nmol/L + Etoposide 123 nmol/L, molar ratio 1:27
[32] = Compound 1 13.7 nmol/L + Etoposide 370 nmol/L, molar ratio 1:27
[33] = Compound 1 41.2 nmol/L + Etoposide 1110 nmol/L, molar ratio 1:27

`Cc1nc(Nc2ncc(C(=O)Nc3c(C)cccc3Cl)s2)cc(N2CCN(CCO)CC2)n1` [Dasatinib] gave a CI (RT4; [1]) of 0.804, a Fa (RT4; [1]) of 0.1983 and a CI (RT4; [2]) of 0.356. For the same molecule, the Fa (RT4; [2]) was 0.3708, the CI (RT4; [3]) was 0.147 and the Fa (RT4; [3]) was 0.5917. For the same molecule, the CI (RT4; [4]) was 0.207, the Fa (RT4; [4]) was 0.6714 and the CI (RT4; [5]) was 0.096. For the same molecule, the Fa (RT4; [5]) was 0.8271, the CI (RT4; [6]) was 0.192 and the Fa (RT4; [6]) was 0.8517. It also gave a CI (RT4; [7]) of 0.229, a Fa (RT4; [7]) of 0.8974 and a CI (NCI-H358; [3]) of 0.342. It also gave a Fa (NCI-H358; [3]) of 0.2486, a CI (NCI-H358; [4]) of 0.208 and a Fa (NCI-H358; [4]) of 0.4351. The CI (NCI-H358; [5]) was 0.119, the Fa (NCI-H358; [5]) was 0.7042 and the CI (NCI-H358; [6]) was 0.227. The Fa (NCI-H358; [6]) was 0.7700, the CI (NCI-H358; [7]) was 0.633 and the Fa (NCI-H358; [7]) was 0.7795.

With `COc1cc(OC)cc(N(CCNC(C)C)c2ccc3ncc(-c4cnn(C)c4)nc3c2)c1` [Erdafitinib] the CI (RT4; [8]) was 0.602, the Fa (RT4; [8]) was 0.3659 and the CI (RT4; [9]) was 0.124. The Fa (RT4; [9]) was 0.6028, the CI (RT4; [10]) was 0.129 and the Fa (RT4; [10]) was 0.6985. It also gave a CI (NCI-H358; [11]) of 0.768, a Fa (NCI-H358; [11]) of 0.3851 and a CI (NCI-H358; [12]) of 0.681. The Fa (NCI-H358; [12]) was 0.7532 and the “Description (combinatory effect by CI)” value (NCI-H358; Compound 1:combination drug molar ratio 1:81) was “Synergy (0.3-0.7)”.

Molecule `O=C(CCCCCCC(=O)Nc1ccccc1)NO` [Vorinostat] has a CI (RT4; [13]) of 0.581, a Fa (RT4; [13]) of 0.0392 and a CI (RT4; [14]) of 0.388. It also gave a Fa (RT4; [14]) of 0.1081, a CI (RT4; [15]) of 0.647 and a Fa (RT4; [15]) of 0.1594. It also gave a CI (RT4; [16]) of 0.394, a Fa (RT4; [16]) of 0.4179 and a CI (RT4; [17]) of 0.569. The Fa (RT4; [17]) was 0.5893, the CI (RT4; [18]) was 0.334 and the Fa (RT4; [18]) was 0.8967. The Description (RT4; Compound 1 + Vorinostat, molar ratio 1:27) was “Synergy (0.3-0.7)”, the CI (NCI-H358; [19]) was 0.642 and the Fa (NCI-H358; [19]) was 0.7678. The CI (NCI-H358; [20]) was 0.464, the Fa (NCI-H358; [20]) was 0.9628 and the Description (NCI-H358; combination effect, Compound 1 + Vorinostat, molar ratio 1:3) was “Synergy (0.3-0.7)”.

`Nc1ccn([C@@H]2O[C@H](CO)[C@@H](O)C2(F)F)c(=O)n1` [Gemcitabine] was tested, and the CI (MKN45; [21]) was 0.698, the Fa (MKN45; [21]) was 0.2152 and the CI (MKN45; [22]) was 0.878. For the same molecule, the Fa (MKN45; [22]) was 0.4083 and the Description (MKN45; combination effect, Compound 1 + Gemcitabine) was “Synergy (0.3-0.7)”.

`COc1cc2ncnc(Nc3ccc(F)c(Cl)c3)c2cc1OCCCN1CCOCC1` [Gefitinib] gave a CI (RT4; [23]) of 0.205, a CI (RT4; [24]) of 0.352 and a CI (RT4; [25]) of 0.445. The CI (NCI-H358; [23]) was 0.311, the CI (NCI-H358; [24]) was 0.370 and the CI (NCI-H358; [25]) was 0.724. For the same molecule, the “Description (combinatory effect by CI)” value (NCI-H358; Compound 1:combination drug molar ratio 1:8.1) was “Synergy (0.3-0.7)”.

For `CNC(=O)c1cc(Oc2ccc(NC(=O)Nc3ccc(Cl)c(C(F)(F)F)c3)c(F)c2)ccn1` [Regorafenib], the CI (RT4; [26]) was 0.650, the Fa (RT4; [26]) was 0.1849 and the CI (RT4; [27]) was 0.582. It also gave a Fa (RT4; [27]) of 0.3071, a CI (RT4; [28]) of 0.359 and a Fa (RT4; [28]) of 0.5417. It also gave a CI (RT4; [29]) of 0.696, a Fa (RT4; [29]) of 0.6157 and a CI (RT4; [30]) of 0.979. For the same molecule, the Fa (RT4; [30]) was 0.7401 and the “Description (combinatory effect by CI)” value (RT4; Compound 1:combination drug molar ratio 1:9) was “Synergy (0.3-0.7)”.

`COc1cc([C@@H]2c3cc4c(cc3[C@@H](O[C@@H]3O[C@@H]5CO[C@@H](C)O[C@H]5[C@H](O)[C@H]3O)[C@H]3COC(=O)[C@H]23)OCO4)cc(OC)c1O` [Etoposide] was tested, and the CI (RT4; [31]) was 0.460, the Fa (RT4; [31]) was 0.0637 and the CI (RT4; [32]) was 0.373. It also gave a Fa (RT4; [32]) of 0.2820, a CI (RT4; [33]) of 0.432 and a Fa (RT4; [33]) of 0.5945. The Description (RT4; Compound 1 + Etoposide, molar ratio 1:27) was “Synergy (0.3-0.7)”.
